# In US10485235B2, “Aryloxypyrimidinyl ethers as herbicides” (FMC Corporation, priority 2015, dated 2019):
# Assays:
# Assay type in all cases: in vivo
# [1] = test system: barnyardgrass (Echinochloa crus-galli); experiment: Test A preemergence, barnyardgrass; conditions: Preemergence, 0 to 100 scale (0 no effect, 100 complete control)
# Outline: (§1)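 Pre- and postemergence greenhouse screen in loam–sand soil. Test chemicals were delivered in a non-phytotoxic solvent with surfactant, preemergence as a directed spray onto seeded soil and postemergence onto 2–10 cm seedlings. Injury was judged by eye after ~10 days on a 0–100 scale.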
# [2] = test system: kochia (Kochia scoparia); experiment: Test A preemergence, kochia; conditions: Preemergence, 0 to 100 scale (0 no effect, 100 complete control)
# Outline: as §1
# [3] = test system: ragweed (common ragweed, Ambrosia elatior); experiment: Test A preemergence, ragweed; conditions: Preemergence, 0 to 100 scale (0 no effect, 100 complete control)
# Outline: as §1
# [4] = test system: ryegrass, Italian (Italian ryegrass, Lolium multiflorum); experiment: Test A preemergence, Italian ryegrass; conditions: Preemergence, 0 to 100 scale (0 no effect, 100 complete control)
# Outline: as §1
# [5] = test system: foxtail, giant (giant foxtail, Setaria faberii); experiment: Test A preemergence, giant foxtail; conditions: Preemergence, 0 to 100 scale (0 no effect, 100 complete control)
# Outline: as §1
# [6] = test system: pigweed (Amaranthus retroflexus); experiment: Test A preemergence, pigweed; conditions: Preemergence, 0 to 100 scale (0 no effect, 100 complete control)
# Outline: as §1
# [7] = test system: barnyardgrass (Echinochloa crus-galli); experiment: Test A postemergence, barnyardgrass; conditions: postemergence, 0 to 100 scale, 0 is no effect, 100 is complete control, approximately 10 days
# Outline: as §1
# [8] = test system: kochia (Kochia scoparia); experiment: Test A postemergence, kochia; conditions: postemergence, 0 to 100 scale, 0 is no effect, 100 is complete control, approximately 10 days
# Outline: as §1
# [9] = test system: ragweed (common ragweed, Ambrosia elatior); experiment: Test A postemergence, ragweed; conditions: postemergence, 0 to 100 scale, 0 is no effect, 100 is complete control, approximately 10 days
# Outline: as §1
# [10] = test system: ryegrass, Italian (Italian ryegrass, Lolium multiflorum); experiment: Test A postemergence, Italian ryegrass; conditions: postemergence, 0 to 100 scale, 0 is no effect, 100 is complete control, approximately 10 days
# Outline: as §1
# [11] = test system: foxtail, giant (giant foxtail, Setaria faberii); experiment: Test A postemergence, giant foxtail; conditions: postemergence, 0 to 100 scale, 0 is no effect, 100 is complete control, approximately 10 days
# Outline: as §1
# [12] = test system: pigweed (Amaranthus retroflexus); experiment: Test A postemergence, pigweed; conditions: postemergence, 0 to 100 scale, 0 is no effect, 100 is complete control, approximately 10 days
# Outline: as §1
# [13] = test system: wheat (Triticum aestivum); experiment: Test A postemergence, wheat; conditions: postemergence, 0 to 100 scale, 0 is no effect, 100 is complete control, approximately 10 days
# Outline: as §1
# [14] = test system: corn (Zea mays); experiment: Test A postemergence, corn; conditions: postemergence, 0 to 100 scale, 0 is no effect, 100 is complete control, approximately 10 days
# Outline: as §1
# [15] = test system: blackgrass (Alopecurus myosuroides); experiment: Test A postemergence, blackgrass; conditions: postemergence, 0 to 100 scale, 0 is no effect, 100 is complete control, approximately 10 days
# Outline: as §1
# [16] = test system: galium (catchweed bedstraw, Galium aparine); experiment: Test A postemergence, galium; conditions: postemergence, 0 to 100 scale, 0 is no effect, 100 is complete control, approximately 10 days
# Outline: as §1
# [17] = test system: rice (Oryza sativa); experiment: Test B flooded paddy test, rice; conditions: 250 g ai/ha, Flood; visual rating after 13 to 15 days; scale 0 to 100, 0 is no effect, 100 is complete control
# Outline: (§2)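 Plants grown to the 2-leaf stage; pots flooded to 3 cm above soil and compounds applied directly into the paddy water, depth held throughout. After 13 to 15 days in the greenhouse, injury was rated visually against untreated controls on a 0–100 scale (0 no effect, 100 complete control).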
# [18] = test system: sedge, umbrella (small-flower umbrella sedge, Cyperus difformis); experiment: Test B flooded paddy test, umbrella sedge; conditions: 250 g ai/ha, Flood; visual rating after 13 to 15 days; scale 0 to 100, 0 is no effect, 100 is complete control
# Outline: as §2
# [19] = test system: ducksalad (Heteranthera limosa); experiment: Test B flooded paddy test, ducksalad; conditions: 250 g ai/ha, Flood; visual rating after 13 to 15 days; scale 0 to 100, 0 is no effect, 100 is complete control
# Outline: as §2
# [20] = test system: barnyardgrass (Echinochloa crus-galli); experiment: Test B flooded paddy test, barnyardgrass; conditions: 250 g ai/ha, Flood; visual rating after 13 to 15 days; scale 0 to 100, 0 is no effect, 100 is complete control
# Outline: as §2
Structure (SMILES),"Plant response rating, Barnyardgrass ([1]; 125 g ai/ha)","Plant response rating, Barnyardgrass ([1]; 500 g ai/ha)","Plant response rating, Kochia ([2]; 125 g ai/ha)","Plant response rating, Kochia ([2]; 500 g ai/ha)","Plant response rating, Ragweed ([3]; 125 g ai/ha)","Plant response rating, Ragweed ([3]; 500 g ai/ha)","Plant response rating, Ryegrass, Italian ([4]; 125 g ai/ha)","Plant response rating, Ryegrass, Italian ([4]; 500 g ai/ha)","Plant response rating, Foxtail, Giant ([5]; 125 g ai/ha)","Plant response rating, Foxtail, Giant ([5]; 500 g ai/ha)","Plant response rating, Pigweed ([6]; 125 g ai/ha)","Plant response rating, Pigweed ([6]; 500 g ai/ha)","Plant response rating, Barnyardgrass ([7]; 125 g ai/ha)","Plant response rating, Barnyardgrass ([7]; 500 g ai/ha)","Plant response rating, Kochia ([8]; 125 g ai/ha)","Plant response rating, Kochia ([8]; 500 g ai/ha)","Plant response rating, Ragweed ([9]; 125 g ai/ha)","Plant response rating, Ragweed ([9]; 500 g ai/ha)","Plant response rating, Ryegrass, Italian ([10]; 125 g ai/ha)","Plant response rating, Ryegrass, Italian ([10]; 500 g ai/ha)",other results
FC(F)COc1c(Br)cccc1Oc1ncc(Cl)cn1 [Compound 17],80,100,90,100,0,30,10,70,100,100,100,100,20,90,100,100,0,40,0,70,"Plant response rating, Foxtail, Giant ([11]; 125 g ai/ha): 40; Plant response rating, Foxtail, Giant ([11]; 500 g ai/ha): 100; Plant response rating, Pigweed ([12]; 125 g ai/ha): 100; Plant response rating, Pigweed ([12]; 500 g ai/ha): 100; Plant response rating, Wheat ([13]; 125 g ai/ha): 0; Plant response rating, Wheat ([13]; 500 g ai/ha): 20; Plant response rating, Corn ([14]; 125 g ai/ha): 20; Plant response rating, Corn ([14]; 500 g ai/ha): 50; Plant response rating, Blackgrass ([15]; 125 g ai/ha): 10; Plant response rating, Blackgrass ([15]; 500 g ai/ha): 90; Plant response rating, Galium ([16]; 125 g ai/ha): 30; Plant response rating, Galium ([16]; 500 g ai/ha): 80; Plant response rating, Rice [17]: 0; Plant response rating, Sedge, Umbrella [18]: 80; Plant response rating, Ducksalad [19]: 85; Plant response rating, Barnyardgrass [20]: 0"
FC(F)(F)c1ccc(COc2c(Br)cccc2Oc2ncc(Cl)cn2)cc1 [Compound 19],0,60,0,0,0,0,0,20,10,90,0,0,0,20,10,50,10,20,0,0,"Plant response rating, Foxtail, Giant ([11]; 125 g ai/ha): 0; Plant response rating, Foxtail, Giant ([11]; 500 g ai/ha): 20; Plant response rating, Pigweed ([12]; 125 g ai/ha): 20; Plant response rating, Pigweed ([12]; 500 g ai/ha): 100; Plant response rating, Wheat ([13]; 125 g ai/ha): 0; Plant response rating, Wheat ([13]; 500 g ai/ha): 20; Plant response rating, Corn ([14]; 125 g ai/ha): 10; Plant response rating, Corn ([14]; 500 g ai/ha): 30; Plant response rating, Blackgrass ([15]; 125 g ai/ha): 0; Plant response rating, Blackgrass ([15]; 500 g ai/ha): 10; Plant response rating, Galium ([16]; 125 g ai/ha): 0; Plant response rating, Galium ([16]; 500 g ai/ha): 30; Plant response rating, Rice [17]: 0; Plant response rating, Sedge, Umbrella [18]: 0; Plant response rating, Ducksalad [19]: 0; Plant response rating, Barnyardgrass [20]: 0"
N#Cc1cccc(Oc2ncc(Cl)cn2)c1OCc1ccc(C(F)(F)F)cc1 [Compound 20],20,30,0,50,0,0,0,20,90,100,30,100,10,30,50,100,20,30,0,20,"Plant response rating, Foxtail, Giant ([11]; 125 g ai/ha): 10; Plant response rating, Foxtail, Giant ([11]; 500 g ai/ha): 30; Plant response rating, Pigweed ([12]; 125 g ai/ha): 90; Plant response rating, Pigweed ([12]; 500 g ai/ha): 90; Plant response rating, Wheat ([13]; 125 g ai/ha): 10; Plant response rating, Wheat ([13]; 500 g ai/ha): 10; Plant response rating, Corn ([14]; 125 g ai/ha): 10; Plant response rating, Corn ([14]; 500 g ai/ha): 20; Plant response rating, Blackgrass ([15]; 125 g ai/ha): 0; Plant response rating, Blackgrass ([15]; 500 g ai/ha): 20; Plant response rating, Galium ([16]; 125 g ai/ha): 30; Plant response rating, Galium ([16]; 500 g ai/ha): 80; Plant response rating, Rice [17]: 0; Plant response rating, Sedge, Umbrella [18]: 0; Plant response rating, Ducksalad [19]: 0; Plant response rating, Barnyardgrass [20]: 0"
N#Cc1cccc(Oc2ncc(Cl)cn2)c1OCc1cccc(Cl)c1 [Compound 21],0,10,0,30,0,0,0,10,40,100,10,40,10,20,40,70,10,20,0,0,"Plant response rating, Foxtail, Giant ([11]; 125 g ai/ha): 10; Plant response rating, Foxtail, Giant ([11]; 500 g ai/ha): 40; Plant response rating, Pigweed ([12]; 125 g ai/ha): 50; Plant response rating, Pigweed ([12]; 500 g ai/ha): 60; Plant response rating, Wheat ([13]; 125 g ai/ha): 0; Plant response rating, Wheat ([13]; 500 g ai/ha): 10; Plant response rating, Corn ([14]; 125 g ai/ha): 10; Plant response rating, Corn ([14]; 500 g ai/ha): 20; Plant response rating, Blackgrass ([15]; 125 g ai/ha): 0; Plant response rating, Blackgrass ([15]; 500 g ai/ha): 20; Plant response rating, Galium ([16]; 125 g ai/ha): 20; Plant response rating, Galium ([16]; 500 g ai/ha): 70; Plant response rating, Rice [17]: 0; Plant response rating, Sedge, Umbrella [18]: 0; Plant response rating, Ducksalad [19]: 0; Plant response rating, Barnyardgrass [20]: 0"
